For one experiment, the target named is T1, TPO receptor (Homo sapiens, UniProt P40238).
T1 construct: expressed in transfected cells; host or cells: murine BaF3 cells (TPO-responsive line)
T1 sequence (P40238 26-635): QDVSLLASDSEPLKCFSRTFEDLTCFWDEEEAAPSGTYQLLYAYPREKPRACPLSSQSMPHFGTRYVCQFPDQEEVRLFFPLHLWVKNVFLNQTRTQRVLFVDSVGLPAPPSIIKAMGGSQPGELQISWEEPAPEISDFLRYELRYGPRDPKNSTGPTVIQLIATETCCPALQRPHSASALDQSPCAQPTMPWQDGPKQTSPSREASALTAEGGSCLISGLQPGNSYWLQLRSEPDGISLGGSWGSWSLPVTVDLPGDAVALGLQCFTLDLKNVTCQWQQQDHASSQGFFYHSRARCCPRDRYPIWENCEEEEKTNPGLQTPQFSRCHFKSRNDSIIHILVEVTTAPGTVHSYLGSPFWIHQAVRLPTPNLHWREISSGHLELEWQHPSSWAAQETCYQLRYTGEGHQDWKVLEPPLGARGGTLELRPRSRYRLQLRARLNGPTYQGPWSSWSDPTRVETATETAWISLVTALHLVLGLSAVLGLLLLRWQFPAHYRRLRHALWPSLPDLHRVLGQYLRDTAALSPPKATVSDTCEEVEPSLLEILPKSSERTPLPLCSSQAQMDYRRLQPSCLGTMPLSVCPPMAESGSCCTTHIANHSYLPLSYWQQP
In words: Luciferase assay in TPO-responsive BaF3 cell line. Format: cell-based, murine. To be noted: at a concentration of 3 uM. As to the method: Compounds of the present invention were tested for potency as mimetics of the TPO receptor in a Luciferase assay such as described in Lamb, et al., Nucleic Acids Research 23: 3283–3289 (1995) and Seidel, et al., Proc. Natl. Acad. Sci., USA 92: 3041–3045 (1995) by substituting a TPO-responsive BaF3 cell line (Vigon et al. Proc. Natl. Acad. Sci. USA 1992, 89, 5640–5644) for the HepG2 cells utilized therein. The murine BaF3 cells express TPO receptors and closely match the pattern of STAT (signal transducers and activators of transcription) activation observed in primary murine and human bone marrow cells in response to TPO.

The subject of experiment [1] is BAF-3/TPO-responsive human cell lines. Kind of experiment: proliferation of BAF-3/TPO-responsive human cell lines (Table 1). The class given is cell-based.

The structures appear in SMILES notation. Read-outs that look alike come from different tables or passages of the source.

A word on the EC50: it is the concentration at which the effect is half-maximal.

In the case of `Cc1ccc(-c2cccc(C=NNC(=S)Nc3cccc(C(=O)O)c3)c2O)cc1C` [Example 15.8, 4-(3-carboxyphenyl)-1-[3-(3,4-dimethylphenyl)-2-hydroxybenzylidene]-3-thiosemicarbazide], the “activation, % of control (control is the maximal response to TPO)” value on TPO receptor is “about 20 % of control”. The Efficacy/%TPOmax in experiment [1] was found to be 90 %TPOmax. A half-maximal effect in experiment [1] (BaF3) (EC50) was put at 30 nM.

As to `O=C(O)c1ccc(NC(=S)NN=Cc2cccc(-c3cccc(C(F)(F)F)c3)c2O)cc1` [Example 15.9, 4-(4-carboxyphenyl)-1-[2-hydroxy-3-(3-trifluoromethylphenyl)benzylidene]-3-thiosemicarbazide], the Efficacy/%TPOmax in experiment [1] amounted to 100 %TPOmax. The compound also yielded an EC50 in experiment [1] (BaF3) of 20 nM.

In experiment [1], `O=C(O)c1cccc(NC(=S)NN=Cc2cccc(-c3cccc(C(F)(F)F)c3)c2O)c1` [Example 15.10, 4-(3-carboxyphenyl)-1-[2-hydroxy-3-(3-trifluoromethylphenyl)benzylidene]-3-3-thiosemicarbazide] returned an EC50 of 50 nM and an Efficacy/%TPOmax of 100 %TPOmax.

In experiment [1], `O=C(O)c1cccc(NC(=S)NN=Cc2cccc(-c3ccc(Cl)cc3)c2O)c1` [Example 15.12, 4-(3-carboxyphenyl)-1-[3-(4-chlorophenyl)-2-hydroxybenzylidene]-3-thiosemicarbazide] registered an Efficacy/%TPOmax of 85 %TPOmax. Besides, the EC50 in experiment [1] (BaF3) is 60 nM.

Regarding `Cc1ccc(-n2nc(C)c(C=NNC(=S)Nc3ccc(C(=O)O)cc3)c2O)cc1` [Example 15.29, 4-(4-carboxyphenyl)-1-[{5-hydroxy-3-methyl-1-(4-methylphenyl)pyrazol-4-yl}methylene]-3-thiosemicarbazide], the Efficacy/%TPOmax in experiment [1] is listed as 100 %TPOmax. Further, in experiment [1] (BaF3), a half-maximal effect (EC50) was put at 30 nM.

With `Cc1ccc(-n2nc(C)c(C=NNC(=S)Nc3cccc(C(=O)O)c3)c2O)cc1` [Example 15.30, 4-(3-carboxyphenyl)-1-[{5-hydroxy-3-methyl-1-(4-methylphenyl)pyrazol-4-yl}methylene]-3-thiosemicarbazide], the Efficacy/%TPOmax in experiment [1] came to 100 %TPOmax. Besides, the EC50 in experiment [1] (BaF3) was determined as 30 nM.

In turn, `Cc1nn(-c2cccc(Cl)c2)c(O)c1C=NNC(=S)Nc1ccc(C(=O)O)cc1` [Example 15.31, 4-(4-carboxyphenyl)-1-[{1-(3-chlorophenyl)-5-hydroxy-3-methylpyrazol-4-yl}methylene]-3-thiosemicarbazide] displayed an Efficacy/%TPOmax in experiment [1] of 100 %TPOmax. In experiment [1] (BaF3), this compound gave an EC50 of 30 nM.

For the origin of these results see patent US7241783B2, “Thrombopoietin mimetics” (SmithKline Beecham Corporation, priority 2000, dated 2007).
